# In BigSolDB 2.1:
compound,measurement,setting,value
NC(N)=S,solubility (mole fraction),"in acetonitrile, 303.15 K",0.00752
same,solubility (mole fraction),"in acetonitrile, 308.15 K",0.00805
same,solubility (mole fraction),"in acetonitrile, 313.15 K",0.00864
same,solubility (mole fraction),"in acetonitrile, 318.15 K",0.00915
same,solubility (mole fraction),"in acetonitrile, 323.15 K",0.00972
same,solubility (mole fraction),"in acetonitrile, 328.15 K",0.0101
same,solubility (mole fraction),"in acetonitrile, 333.15 K",0.0108
same,solubility (mole fraction),"in acetonitrile, 338.15 K",0.011
same,solubility (mole fraction),"in acetonitrile, 343.15 K",0.0112
same,solubility (mole fraction),"in benzene, 303.15 K",0.00283
same,solubility (mole fraction),"in benzene, 308.15 K",0.00313
same,solubility (mole fraction),"in benzene, 313.15 K",0.0034
same,solubility (mole fraction),"in benzene, 318.15 K",0.00372
same,solubility (mole fraction),"in benzene, 323.15 K",0.00395
same,solubility (mole fraction),"in benzene, 328.15 K",0.00436
same,solubility (mole fraction),"in benzene, 333.15 K",0.00496
same,solubility (mole fraction),"in benzene, 338.15 K",0.00564
same,solubility (mole fraction),"in benzene, 343.15 K",0.0065
same,solubility (mole fraction),"in chlorobenzene, 303.15 K",0.00127
same,solubility (mole fraction),"in chlorobenzene, 308.15 K",0.00144
same,solubility (mole fraction),"in chlorobenzene, 313.15 K",0.00157
same,solubility (mole fraction),"in chlorobenzene, 318.15 K",0.00174
same,solubility (mole fraction),"in chlorobenzene, 323.15 K",0.00189
same,solubility (mole fraction),"in chlorobenzene, 328.15 K",0.00211
same,solubility (mole fraction),"in chlorobenzene, 333.15 K",0.0023
same,solubility (mole fraction),"in chlorobenzene, 338.15 K",0.00256
same,solubility (mole fraction),"in chlorobenzene, 343.15 K",0.00277
same,solubility (mole fraction),"in ethanol, 303.15 K",0.0283
same,solubility (mole fraction),"in ethanol, 308.15 K",0.0322
same,solubility (mole fraction),"in ethanol, 313.15 K",0.0354
same,solubility (mole fraction),"in ethanol, 318.15 K",0.0401
same,solubility (mole fraction),"in ethanol, 323.15 K",0.0465
same,solubility (mole fraction),"in ethanol, 328.15 K",0.0531
same,solubility (mole fraction),"in ethanol, 333.15 K",0.0592
same,solubility (mole fraction),"in ethanol, 338.15 K",0.0662
same,solubility (mole fraction),"in ethanol, 343.15 K",0.0751
same,solubility (mole fraction),"in ethyl acetate, 303.15 K",0.0199
same,solubility (mole fraction),"in ethyl acetate, 308.15 K",0.021
same,solubility (mole fraction),"in ethyl acetate, 313.15 K",0.0221
same,solubility (mole fraction),"in ethyl acetate, 318.15 K",0.023
same,solubility (mole fraction),"in ethyl acetate, 323.15 K",0.0244
same,solubility (mole fraction),"in ethyl acetate, 328.15 K",0.0264
same,solubility (mole fraction),"in ethyl acetate, 333.15 K",0.0286
same,solubility (mole fraction),"in ethyl acetate, 338.15 K",0.0307
same,solubility (mole fraction),"in ethyl acetate, 343.15 K",0.0327
same,solubility (mole fraction),"in isopropanol, 303.15 K",0.0258
same,solubility (mole fraction),"in isopropanol, 308.15 K",0.0286
same,solubility (mole fraction),"in isopropanol, 313.15 K",0.0325
same,solubility (mole fraction),"in isopropanol, 318.15 K",0.0361
same,solubility (mole fraction),"in isopropanol, 323.15 K",0.0408
same,solubility (mole fraction),"in isopropanol, 328.15 K",0.0445
same,solubility (mole fraction),"in isopropanol, 333.15 K",0.049
same,solubility (mole fraction),"in isopropanol, 338.15 K",0.0534
same,solubility (mole fraction),"in isopropanol, 343.15 K",0.0588
same,solubility (mole fraction),"in m-xylene, 303.15 K",0.0022
same,solubility (mole fraction),"in m-xylene, 308.15 K",0.00249
same,solubility (mole fraction),"in m-xylene, 313.15 K",0.00277
same,solubility (mole fraction),"in m-xylene, 318.15 K",0.00311
same,solubility (mole fraction),"in m-xylene, 323.15 K",0.00342
same,solubility (mole fraction),"in m-xylene, 328.15 K",0.00375
same,solubility (mole fraction),"in m-xylene, 333.15 K",0.00422
same,solubility (mole fraction),"in m-xylene, 338.15 K",0.00485
same,solubility (mole fraction),"in m-xylene, 343.15 K",0.00556
same,solubility (mole fraction),"in methanol, 303.15 K",0.0605
same,solubility (mole fraction),"in methanol, 308.15 K",0.0654
same,solubility (mole fraction),"in methanol, 313.15 K",0.0728
same,solubility (mole fraction),"in methanol, 318.15 K",0.0804
same,solubility (mole fraction),"in methanol, 323.15 K",0.0932
same,solubility (mole fraction),"in methanol, 328.15 K",0.106
same,solubility (mole fraction),"in methanol, 333.15 K",0.123
same,solubility (mole fraction),"in n-butanol, 303.15 K",0.0207
same,solubility (mole fraction),"in n-butanol, 308.15 K",0.0225
same,solubility (mole fraction),"in n-butanol, 313.15 K",0.0248
same,solubility (mole fraction),"in n-butanol, 318.15 K",0.0273
same,solubility (mole fraction),"in n-butanol, 323.15 K",0.0297
same,solubility (mole fraction),"in n-butanol, 328.15 K",0.0332
same,solubility (mole fraction),"in n-butanol, 333.15 K",0.0361
same,solubility (mole fraction),"in n-butanol, 338.15 K",0.0396
same,solubility (mole fraction),"in n-octanol, 303.15 K",0.0211
same,solubility (mole fraction),"in n-octanol, 308.15 K",0.0242
same,solubility (mole fraction),"in n-octanol, 313.15 K",0.028
same,solubility (mole fraction),"in n-octanol, 318.15 K",0.032
same,solubility (mole fraction),"in n-octanol, 323.15 K",0.0354
same,solubility (mole fraction),"in n-octanol, 328.15 K",0.0394
same,solubility (mole fraction),"in n-octanol, 333.15 K",0.0445
same,solubility (mole fraction),"in n-octanol, 338.15 K",0.0488
same,solubility (mole fraction),"in n-octanol, 343.15 K",0.0526
same,solubility (mole fraction),"in n-propanol, 303.15 K",0.0242
same,solubility (mole fraction),"in n-propanol, 308.15 K",0.0265
same,solubility (mole fraction),"in n-propanol, 313.15 K",0.0292
same,solubility (mole fraction),"in n-propanol, 318.15 K",0.0324
same,solubility (mole fraction),"in n-propanol, 323.15 K",0.036
same,solubility (mole fraction),"in n-propanol, 328.15 K",0.0398
same,solubility (mole fraction),"in n-propanol, 333.15 K",0.0451
same,solubility (mole fraction),"in n-propanol, 338.15 K",0.0499
same,solubility (mole fraction),"in n-propanol, 343.15 K",0.0544
same,solubility (mole fraction),"in toluene, 303.15 K",0.0025
same,solubility (mole fraction),"in toluene, 308.15 K",0.00289
same,solubility (mole fraction),"in toluene, 313.15 K",0.00307
same,solubility (mole fraction),"in toluene, 318.15 K",0.00336
same,solubility (mole fraction),"in toluene, 323.15 K",0.00372
same,solubility (mole fraction),"in toluene, 328.15 K",0.00405
same,solubility (mole fraction),"in toluene, 333.15 K",0.00452
same,solubility (mole fraction),"in toluene, 338.15 K",0.00525
same,solubility (mole fraction),"in toluene, 343.15 K",0.0059
